The assay concerns brain atrophy rate in patients with a diagnosis of MCI. Put plainly: VITACOG trial: whole brain atrophy per year from MRI scans (SIENA). It counts as in vivo, human. The note with it: for BAR (brain atrophy rate): entire study group. How it is done:
This study was conducted as a part of the VITACOG trial, ‘Homocysteine and B vitamins in cognitive impairment’, and was carried out according to the principles of the Declaration of Helsinki and received approval of the Oxfordshire NHS research ethics committee A (COREC 04/Q1604/100). All participants gave their written informed consent. The study protocol and participants, along with inclusion and exclusion criteria, have been described in detail elsewhere (Smith et al, PLOS One 2010; 5 (9); e12244.doi10.1371/journal.pone. 0012244). In short, 646 patients above 70 years of age with a diagnosis of MCI were assessed for eligibility. After randomization of eligible subjects, and some withdrawals, 133 started treatment with TrioBe Plus® (0.8 mg folic acid, 0.5 mg vitamin B12, and 20 mg vitamin B6, specifically 0.8 mg folic acid, 0.5 mg cyanocobalamin and 20 mg pyridoxine HCl) while 133 received placebo for a duration of 24 months. Participants were only included in this study if brain atrophy data was available.
The MRI protocol used in the VITACOG study has been described in detail elsewhere (Smith et al referenced above). In short, baseline and follow-up volumetric cranial MRI scans were carried out at the Oxford Centre for Clinical Magnetic Resonance Research using a 1.5 T MRI system (Sonata; Siemens Medical Solutions, Erlangen, Germany). Whole brain atrophy per year was estimated from MR images taken at baseline and follow-up, using the fully automated SIENA protocol which provides accuracy and robustness. Normalized brain volume at baseline was estimated from a single image using a cross-sectional method (SIENAX), and used as a covariate in the statistical analyses.
IBM SPSS for Windows, version 20, was used for all statistical analyses (IBM Corp., Armonk, NY, USA). Skewed fatty acids were normalized using their natural logarithms. Unless otherwise stated, fatty acid concentrations at baseline were used for statistical analyses. The main outcome in this study was to investigate the effect of B vitamin treatment on brain atrophy rates, based on baseline omega-3 fatty acid status. Analyses of variance, were used to further examine associations between the fatty acid variables and tHcy and brain atrophy. Two correction models were used. Model A was adjusted for age, sex, and initial brain volume, while model B also adjusted for plasma tHcy, ApoE status, education level, and baseline levels of diastolic blood pressure, triglyceride concentration, and creatinine concentration. When the entire study population was included in the analysis, tHcy measured at follow-up was used as covariate since this measure most likely represents the average tHcy during the trial. When the analysis was confined to the placebo group, tHcy at baseline was used.
Differences between atrophy rate in the placebo and B vitamin groups were assessed using Student's t test, while brain atrophy rates according to different levels of fatty acids (tertiles), were analyzed using ANCOVA. Where an ANCOVA indicated significant differences between tertiles, Bonferroni corrected post hoc comparisons were made between the lowest and the two higher tertiles. […] P<0.05 was considered statistically significant in all analyses.

Where [1] appears, read: HIGH tHcy at follow-up, middle baseline tertile, Model A.
The mark [2] stands for this setting: HIGH tHcy at follow-up, middle baseline tertile, Model B.
The mark [3] stands for this setting: HIGH tHcy at follow-up, top baseline tertile, Model A.
[4] abbreviates: HIGH tHcy at follow-up, top baseline tertile, Model B.
The mark [5] stands for this setting: LOW tHcy at follow-up, middle baseline tertile, Model A.
Setting [6] is: LOW tHcy at follow-up, middle baseline tertile, Model B.
[7] abbreviates: LOW tHcy at follow-up, top baseline tertile, Model A.
Where [8] appears, read: LOW tHcy at follow-up, top baseline tertile, Model B.
Setting [9] is: HIGH tHcy at follow-up, lowest baseline tertile (DHA <245 μM, EPA <136 μM), Model A.
Setting [10] is: HIGH tHcy at follow-up, lowest baseline tertile (DHA <245 μM, EPA <136 μM), Model B.
[11] abbreviates: HIGH tHcy at follow-up, middle baseline tertile (DHA 245-345 μM, EPA 136-222 μM), Model A.
[12] abbreviates: HIGH tHcy at follow-up, middle baseline tertile (DHA 245-345 μM, EPA 136-222 μM), Model B.
[13] abbreviates: HIGH tHcy at follow-up, top baseline tertile (DHA >345 μM, EPA >222 μM), Model A.
Setting [14] is: HIGH tHcy at follow-up, top baseline tertile (DHA >345 μM, EPA >222 μM), Model B.
Setting [15] is: LOW tHcy at follow-up, lowest baseline tertile (DHA <245 μM, EPA <136 μM), Model A.
The mark [16] stands for this setting: LOW tHcy at follow-up, lowest baseline tertile (DHA <245 μM, EPA <136 μM), Model B.
Where [17] appears, read: LOW tHcy at follow-up, middle baseline tertile (DHA 245-345 μM, EPA 136-222 μM), Model A.
Where [18] appears, read: LOW tHcy at follow-up, middle baseline tertile (DHA 245-345 μM, EPA 136-222 μM), Model B.
[19] abbreviates: LOW tHcy at follow-up, top baseline tertile (DHA >345 μM, EPA >222 μM), Model A.
Where [20] appears, read: LOW tHcy at follow-up, top baseline tertile (DHA >345 μM, EPA >222 μM), Model B.

The values below come from patent US12161616B2, “Combination therapy comprising an omega-3 fatty acid, a folate species and a vitamin B12 species” (Oxford University Innovation Limited, priority 2014, dated 2024).

On to `CC/C=C\C/C=C\C/C=C\C/C=C\C/C=C\CCCC(=O)O` [20:5n-3 (EPA), Eicosapentaenoic acid], for which the “Percent change of BAR compared to the lowest fatty acid tertile” value (“Percent change of BAR” below) reads like this: under setting [1], 18%; under setting [2], 11%; under setting [3], 9.5%; under setting [4], 4.3%; under setting [5], −30%; under setting [6], −27%. Also, the “Percent change of BAR” value is −33% under setting [7] and −40% under setting [8]. Further, the “BAR (brain atrophy rate)” value under setting [9] is listed as 1.02 percent brain whole brain reduction per year; the “BAR (brain atrophy rate)” value under setting [10] is 0.98 percent brain whole brain reduction per year; the “BAR (brain atrophy rate)” value under setting [11] is on record as 1.19 percent brain whole brain reduction per year; the “BAR (brain atrophy rate)” value under setting [12] was 1.20 percent brain whole brain reduction per year; the “BAR (brain atrophy rate)” value under setting [13] is on record as 1.11 percent brain whole brain reduction per year; the “BAR (brain atrophy rate)” value under setting [14] was 1.13 percent brain whole brain reduction per year. Besides, the “BAR (brain atrophy rate)” value was 1.07 percent brain whole brain reduction per year under setting [15]; 1.14 percent brain whole brain reduction per year under setting [16]; 0.73 percent brain whole brain reduction per year under setting [17]; 0.76 percent brain whole brain reduction per year under setting [18]; 0.69 percent brain whole brain reduction per year under setting [19]; 0.63 percent brain whole brain reduction per year under setting [20].
As to `CC/C=C\C/C=C\C/C=C\C/C=C\C/C=C\C/C=C\CCC(=O)O` [22:6n-3 (DHA), Docosahexaenoic acid], the “Percent change of BAR” value runs as follows: under setting [1], 7.7%; under setting [2], 5.7%; under setting [3], 8.6%; under setting [4], 0.4%; under setting [5], −34%; under setting [6], −36%. The “Percent change of BAR” value by setting is: under setting [7], −37%; under setting [8], −43%. For the same molecule, the “BAR (brain atrophy rate)” value is, setting by setting: under setting [9], 1.08 percent brain whole brain reduction per year; under setting [10], 1.06 percent brain whole brain reduction per year; under setting [11], 1.12 percent brain whole brain reduction per year; under setting [12], 1.14 percent brain whole brain reduction per year; under setting [13], 1.13 percent brain whole brain reduction per year; under setting [14], 1.08 percent brain whole brain reduction per year. For the same molecule, the “BAR (brain atrophy rate)” value under setting [15] is listed as 1.09 percent brain whole brain reduction per year; the “BAR (brain atrophy rate)” value under setting [16] is on record as 1.20 percent brain whole brain reduction per year; the “BAR (brain atrophy rate)” value under setting [17] is on record as 0.71 percent brain whole brain reduction per year; the “BAR (brain atrophy rate)” value under setting [18] is given as 0.70 percent brain whole brain reduction per year; the “BAR (brain atrophy rate)” value under setting [19] is recorded as 0.68 percent brain whole brain reduction per year; the “BAR (brain atrophy rate)” value under setting [20] was 0.62 percent brain whole brain reduction per year.
